inhibition, Activity and IC50 data for 15 compounds are collected here from ChEMBL document CHEMBL1156803, “Novel 3-arylideneindolin-2-ones as inhibitors of NAD+ -dependent histone deacetylases (sirtuins)” (J Med Chem, 2010).

Active and inactive are the calls of the source. The calls are words filed in the database; no cut-off is given here.

Data set [1] has as its target T1, NAD-dependent protein deacetylase sirtuin-3, mitochondrial (Homo sapiens) (UniProt Q9NTG7).
T1 sequence (whole entry): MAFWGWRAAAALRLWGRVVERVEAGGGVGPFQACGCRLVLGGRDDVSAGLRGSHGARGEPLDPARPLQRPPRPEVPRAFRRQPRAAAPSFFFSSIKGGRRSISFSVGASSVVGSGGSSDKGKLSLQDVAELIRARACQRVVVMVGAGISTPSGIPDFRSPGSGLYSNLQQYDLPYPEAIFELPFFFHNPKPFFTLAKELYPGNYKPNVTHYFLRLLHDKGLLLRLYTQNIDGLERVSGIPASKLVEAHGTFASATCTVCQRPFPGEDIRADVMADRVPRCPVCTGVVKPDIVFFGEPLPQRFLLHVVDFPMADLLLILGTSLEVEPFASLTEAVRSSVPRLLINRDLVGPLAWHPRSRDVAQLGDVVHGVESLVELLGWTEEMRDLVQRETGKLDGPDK
The data set can be described thus: Inhibition of human recombinant N-terminally 6X-His-tagged SIRT3 at 50 uM after 4 hrs in presence of NAD+ by fluorescent deacetylase assay.

Data set [2] has as its target T2, NAD-dependent protein deacetylase sirtuin-2 (Homo sapiens) (UniProt Q8IXJ6).
T2 sequence (whole entry): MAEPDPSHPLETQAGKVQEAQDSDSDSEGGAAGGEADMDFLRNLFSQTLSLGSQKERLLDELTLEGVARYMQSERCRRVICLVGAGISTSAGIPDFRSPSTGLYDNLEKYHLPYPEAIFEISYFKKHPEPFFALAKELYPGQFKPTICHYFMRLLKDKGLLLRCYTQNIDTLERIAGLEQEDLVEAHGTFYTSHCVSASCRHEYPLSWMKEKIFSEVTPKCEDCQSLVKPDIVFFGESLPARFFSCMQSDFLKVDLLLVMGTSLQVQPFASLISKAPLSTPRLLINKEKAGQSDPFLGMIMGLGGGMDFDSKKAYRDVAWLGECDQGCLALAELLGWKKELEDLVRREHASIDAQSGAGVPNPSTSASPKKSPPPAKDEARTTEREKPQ
As to the kind of experiment: Inhibition of human recombinant N-terminally 6X-His-tagged SIRT2 at 50 uM after 4 hrs in presence of NAD+ by fluorescent deacetylase assay.

The target in data set [3] is T3, NAD-dependent protein deacetylase sirtuin-1 (Homo sapiens) (UniProt Q96EB6).
T3 sequence (whole entry): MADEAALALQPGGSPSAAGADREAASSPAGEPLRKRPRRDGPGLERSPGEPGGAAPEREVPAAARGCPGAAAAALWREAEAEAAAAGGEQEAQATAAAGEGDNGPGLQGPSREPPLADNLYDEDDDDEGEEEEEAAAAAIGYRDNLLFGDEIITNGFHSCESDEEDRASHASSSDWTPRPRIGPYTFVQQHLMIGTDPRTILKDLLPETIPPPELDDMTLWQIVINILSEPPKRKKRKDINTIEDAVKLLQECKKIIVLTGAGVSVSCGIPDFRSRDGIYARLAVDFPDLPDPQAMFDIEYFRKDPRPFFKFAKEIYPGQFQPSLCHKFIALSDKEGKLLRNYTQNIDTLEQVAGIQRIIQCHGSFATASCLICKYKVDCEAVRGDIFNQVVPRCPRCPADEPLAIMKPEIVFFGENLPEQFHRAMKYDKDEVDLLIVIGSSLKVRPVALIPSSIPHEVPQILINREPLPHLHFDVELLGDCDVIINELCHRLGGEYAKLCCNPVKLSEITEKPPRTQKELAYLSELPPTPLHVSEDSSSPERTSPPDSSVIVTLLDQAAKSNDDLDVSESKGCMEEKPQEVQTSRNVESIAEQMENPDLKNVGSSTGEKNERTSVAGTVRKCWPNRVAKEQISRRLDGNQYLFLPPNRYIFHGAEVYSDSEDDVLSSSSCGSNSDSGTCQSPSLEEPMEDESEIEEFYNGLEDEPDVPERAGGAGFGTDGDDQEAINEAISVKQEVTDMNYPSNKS
As to the kind of experiment: Inhibition of human recombinant N-terminally GST-tagged SIRT1 at 50 uM after 4 hrs in presence of NAD+ by fluorescent deacetylase assay.

Data set [4] has as its target T2, NAD-dependent protein deacetylase sirtuin-2 (Homo sapiens). The data set can be described thus: Inhibition of SIRT2 in human MCF7 cells assessed as tubulin hyperacetylation at 0.1 uM after 16 hrs by Western blot. The format is cell-based. (In western blotting, separated proteins are transferred to a membrane and probed.)
Data set [5] has as its system HepG2. The data set can be described thus: Toxicity in human HepG2 cells after 6 hrs. The format is cell-based. To be noted: hepg2, 6 h.
Data set [6] deals with T2, NAD-dependent protein deacetylase sirtuin-2 (Homo sapiens). The data set can be described thus: Inhibition of SIRT2 in human HepG2 cells assessed as alpha-tubulin hyperacetylation after 6 hrs by ELISA. The format is cell-based. (In general: An ELISA detects its analyte on a solid surface through an enzyme-linked reagent.)
Data set [7] has as its target T4, NAD-dependent protein deacetylase sirtuin-2 (Homo sapiens, UniProt Q8IXJ6).
T4 sequence (Q8IXJ6 whole entry): T2 sequence (whole entry)
As to the kind of experiment: Inhibition of human recombinant N-terminally 6X-His-tagged SIRT2 after 4 hrs in presence of NAD+ by fluorescent deacetylase assay.

In data set [8] the target is T5, NAD-dependent protein deacetylase sirtuin-1 (Homo sapiens, UniProt Q96EB6).
T5 sequence (Q96EB6 whole entry): T3 sequence (whole entry)
The data set can be described thus: Inhibition of human recombinant N-terminally GST-tagged SIRT1 after 4 hrs in presence of NAD+ by fluorescent deacetylase assay.

Data set [9] addresses T2, NAD-dependent protein deacetylase sirtuin-2 (Homo sapiens). The data set can be described thus: Inhibition of SIRT2 in human MCF7 cells assessed as tubulin hyperacetylation at 10 uM after 16 hrs by Western blot. The format is cell-based.

What is called inhibition is the drop in the measured response relative to a control, in per cent. Regarding `O=C1Nc2c(ccc(Cl)c2Cl)/C1=C/c1ccc(O)cc1`, the inhibition was 13.5% in [1], 34.7% in [2] and less than 10% in data set [3].

Take `CC(/C=C/C(=O)NO)=C\[C@@H](C)C(=O)c1ccc(N(C)C)cc1`: in data set [4], the result was Active.

`O=C1Nc2c(ccc(Cl)c2Cl)/C1=C\c1ccccn1`: the inhibition in data set [1] was less than 10%; in data set [2] it was 20.6%; in data set [3], 22.7%.

On to `O=C1Nc2c(ccc(Cl)c2Cl)/C1=C/c1ccc(F)cc1`, for which the Activity entry in data set [5] is listed as “Non-toxic”. The results for the inhibition in data set [1] and in data set [3] were less than 10% and 24.4%, respectively. Further, the result in data set [6] was inactive.

Regarding `O=C1Nc2c(ccc(Cl)c2Cl)/C1=C/c1cc(C(F)(F)F)cc(C(F)(F)F)c1`, the inhibition in [1] is less than 10%; in [3] it was 19.8%.

As a reminder, the IC50 is the midpoint of a concentration-inhibition curve. For the compound `O=C1Nc2c(ccc(Cl)c2Cl)/C1=C/c1cc(Br)c(O)c(Br)c1`, the Activity entry in data set [5] is reported as “Non-toxic”. Moreover, the half-inhibitory concentration (IC50) in data set [7] worked out at 28.4 µM; in [8] it was 40.6 µM. Further, the outcome in [6] was Active.

As for `Cn1cc(C2=C(c3cn(CCCSC(=N)N)c4ccccc34)C(=O)NC2=O)c2ccccc21`, the result in data set [9] was Active.

As for `O=C1Nc2c(ccc(Cl)c2Cl)/C1=C/c1ccc(C(F)(F)F)cc1`, the inhibition is less than 10% in [1], 18.3% in data set [2] and 45.4% in data set [3].

As to `Cc1cc(C)c(/C=C2\C(=O)Nc3c2ccc(Cl)c3Cl)[nH]1`, the inhibition in data set [1] is less than 10%; in data set [3], 19.9%.

As to `CN(C)c1ccc(/C=C2\C(=O)Nc3c2ccc(Cl)c3Cl)cc1`, the inhibition was less than 10% in data set [1], less than 10% in [2] and 20.7% in [3].

As to `O=C1Nc2c(ccc(Cl)c2Cl)/C1=C/c1ccc([N+](=O)[O-])cc1`, the IC50 in data set [7] amounted to 10.4 µM. Further, the inhibition in data set [1] was less than 10%; in [3], 30.2%.

As to `COc1cc(/C=C2\C(=O)Nc3c2ccc(Cl)c3Cl)cc(OC)c1OC`, the inhibition in [1], in data set [2] and in data set [3] was less than 10% each time.

Take `CCN(CC)CCNC(=O)c1c(C)[nH]c(/C=C2\C(=O)Nc3ccc(F)cc32)c1C` [SUNITINIB]: in data set [7], the half-maximal inhibitory concentration (IC50) is 123 µM. For the same compound, the results for the inhibition in [1] and in [3] were 26.4% and less than 10%, respectively.

With `Cn1c2c(Cl)c(Cl)ccc2c2cc[nH]c(=O)c21` [BAUERINE C], the inhibition in data set [1] and in [3] was less than 10% in each case.

Turning to `O=C1Nc2c(ccc(Cl)c2Cl)/C1=C\c1ccncc1`, the inhibition in data set [1] is less than 10%; in data set [2], 16.5%; in data set [3], 19.6%.
